Experimental data: paper PMC8583417, “Evaluation of the Antimicrobial Efficacy of N-Acetyl-L-Cysteine, Rhamnolipids, and Usnic Acid—Novel Approaches to Fight Food-Borne Pathogens” (International Journal of Molecular Sciences, 2021)

Legend:
E. coli 683/17 = experiment: MIC for planktonic cell growth (A625nm); assay type: cell-based, Escherichia coli; conditions: for MICPC80: ≥80% inhibition, 24 h
Protocol: (§1) Ten concentrations of NAC, RLs, and UA were tested to determine the minimum inhibitory concentration for planktonic growth, and subsequently, the six highest concentrations were applied on preformed biofilms to evaluate the biofilm eradication ability of the compounds. MIC was defined as the lowest substance concentration able to inhibit at least 80% of microbial growth (MICPC80 for planktonic cells, MICBC80 for further growth of biofilm cells), inhibit 80% of metabolic activity (MICBM80 for biofilm metabolic activity, MICMPB80 for metabolic activity of preformed biofilm), prevent biofilm formation by at least 80% (MICBF80 for biofilm formation), or reduce a preformed biofilm by at least 80% (MICBR80 for biofilm reduction). The results of MICs are summarized in Table 1 (planktonic cells) and Table 2 (biofilm-associated cells).
(§2) The determination of MICs was performed according to Chlumsky et al.. Briefly, 96-well flat-bottomed microtiter plates were inoculated with 75 µL (for biofilm formation) or 100 µL (for preformed biofilm) of bacterial suspension (A625nm 0.08 to 0.1) in technical triplicates and were then carefully mixed with the dilution series of the test substances (24 h cultivation at 25 °C for S. Infantis, 37 °C for other strains) or were directly cultivated to preform biofilms (18 h). For a positive control of bacterial growth, the inoculum was mixed with a pure sterile medium. Furthermore, the sterile medium was included in the plate as a marker of potential microbial contamination. To evaluate planktonic cells growth (MICPC80) and further growth of biofilm cells (MICBC80), the optical density of the content of the microtiter plates was measured spectrophotometrically at 625 nm before and after 24 h (for biofilm formation) of cultivation or before and after additional 20 h incubation with the tested compound (for preformed biofilm). The difference of A625nm was considered as a measure of the ability of cells to grow in the presence of the tested substances. To evaluate the inhibition of biofilm formation (MICBF80) and reduction in preformed biofilms (MICBR80), biomass was quantified using crystal violet staining, and its metabolic activity (MICBM80 and MICMPB80) was estimated by using the MTT (thiazyl tetrazolium bromide, Sigma-Aldrich, USA) reduction assay, both measured spectrophotometrically at 595 nm.
(§3) All inhibitions were calculated using the formula of Chlumsky et al. below (Equation (1)):(1) A625(595)nm inhibition (%)=A625(595)nm (control) – A625(595)nm(natural substance)/A625(595)nm (control)× 100 where A625(595)nm (control) is the absorbance of bacterial suspension/biofilm itself, and A625(595)nm(natural substance) is the absorbance of the bacterial suspension/biofilm with the added natural substance (NAC, RLs, and UA).
(§4) When the minimum inhibitory concentration could not be determined, the MIC was established as >the highest tested concentration for NAC, RLs, and UA.

E. coli 693/17 = experiment: MIC for planktonic cell growth (A625nm); assay type: cell-based, Escherichia coli; conditions: for MICPC80: ≥80% inhibition, 24 h
Protocol: as §1, §2, §3, §4

[1] = test system: S. Enteritidis ATCC 13076; experiment: CLSM analysis, biofilm removal (preformed biofilm); assay type: cell-based, Salmonella enterica Enteritidis; conditions: 20 h exposure, mean ± SD; for Thickness (µm) subCBM80: substance at subinhibitory concentration
Protocol: Biofilm prevention and removal analyses were performed using previously determined minimum inhibitory and subinhibitory concentrations for metabolic activity (MICBM80, subCBM80; MICMPB80, subCMPB80) of NAC, RLs, and UA specific for each tested strain. Selected concentrations were used to evaluate the inhibition of biofilm formation (biofilm prevention) and the reduction in previously formed biofilms (biofilm removal) for the same set of microorganisms, with the exception of S. Infantis, which was excluded from the analysis due to its inability to form biofilm in the selected microtiter plate. Biofilm prevention and removal were observed using CLSM with specific staining to distinguish between live and membrane-compromised cells. Images were analyzed to evaluate (i). the total volume of the biomass, (ii). ratios of live and membrane-compromised cells, and (iii). to calculate biofilm volume reduction for individual organisms after the respective treatment types. The total biofilm volume was normalized by the area of the well and expressed as an average biofilm thickness. Complete data are provided in Supplementary Materials (Tables S1–S8).
At first, bacterial suspensions were cultivated in microtiter plates to produce overnight biofilms (18 h). […] cells were then washed out, and the remaining biofilms were further cultivated for an additional 20 h with selected compounds. Following biofilm cultivation, biomass was observed using CLSM with live/membrane-compromised cell staining. Biomass images from biofilm removal treatments were similar to results from biofilm prevention, where biomass was highly diversified across the bacterial species and strains. Visually, biomass images were fairly consistent within the quadruplicates for each tested organism. Non-treated biofilms of S. aureus contained consistent biomass spread across the well (S. aureus 816) or grown around the edges (S. aureus 1241). […]
For both inhibition and reduction of biofilms, overnight cultures from BHI were diluted in TSB + 1% Glc to reach an absorbance of 0.08 to 0.1 at 625 nm. […]

S. aureus 1241 [2] = experiment: MIC for reduction of preformed biofilm (crystal violet staining); assay type: cell-based, Staphylococcus aureus; conditions: for maximal achieved inhibition (MICBR80 not reached), biofilm reduction: preformed biofilm, within tested concentrations; for MICBR80: ≥80% reduction of preformed biofilm (18 h), 20 h with substance
Protocol: as §1, §2, §3, §4

S. aureus 816 = experiment: as above; assay type: cell-based, Staphylococcus aureus; conditions: for MICBR80: ≥80% reduction of preformed biofilm (18 h), 20 h with substance
Protocol: as §1, §2, §3, §4

[3] = test system: S. Enteritidis ATCC 13076; experiment: MIC for planktonic cell growth (A625nm); assay type: cell-based, Salmonella enterica Enteritidis; conditions: for MICPC80: ≥80% inhibition, 24 h
Protocol: as §1
(§5) The determination of MICs was performed according to Chlumsky et al.. […] To evaluate planktonic cells growth (MICPC80) and further growth of biofilm cells (MICBC80), the optical density of the content of the microtiter plates was measured spectrophotometrically at 625 nm before and after 24 h (for biofilm formation) of cultivation or before and after additional 20 h incubation with the tested compound (for preformed biofilm). […] To evaluate the inhibition of biofilm formation (MICBF80) and reduction in preformed biofilms (MICBR80), biomass was quantified using crystal violet staining, and its metabolic activity (MICBM80 and MICMPB80) was estimated by using the MTT (thiazyl tetrazolium bromide, Sigma-Aldrich, USA) reduction assay, both measured spectrophotometrically at 595 nm.
as §3, with “UA). […]” for “UA).”

S. aureus 1241 [4] = experiment: MIC for further growth of biofilm cells, preformed biofilm (A625nm); assay type: cell-based, Staphylococcus aureus; conditions: ≥80% inhibition, 18 h preformed biofilm, 20 h with substance
Protocol: as §1, §5
as §3, with “UA). […]” for “UA).”

SMILES | maximal achieved inhibition (MICPC80 not reached) (E. coli 683/17; within tested concentrations) [%] | MICPC80 (E. coli 683/17) [µg/mL] | maximal achieved inhibition (MICPC80 not reached) (E. coli 693/17; within tested concentrations) [%] | MICPC80 (E. coli 693/17) [µg/mL] | Thickness (µm) subCBM80 [1] [µm] | maximal achieved inhibition (MICBR80 not reached), biofilm reduction (S. aureus 1241 [2]) [%] | MICBR80 (S. aureus 1241 [2]) | maximal achieved inhibition (MICBR80 not reached), biofilm reduction (S. aureus 816; preformed biofilm, within tested concentrations) [%] | MICBR80 (S. aureus 816) | maximal achieved inhibition (MICPC80 not reached) ([3]; within tested concentrations) [%] | MICPC80 [3] | MICBC80 (S. aureus 1241 [4]) [µg/mL] | Thickness (µm) MICBM80 ([1]; substance at its MIC) [µm]
CC(=O)c1c(O)c(C)c(O)c2c1OC1=CC(=O)C(C(C)=O)C(=O)C12C (single isomer, unassigned; (+)) [UA, (+)-usnic acid] | 20 | > 31.3 | 40 | > 31.3 | 203 ± 19.8 | 72 | > 31.3 µg/mL | 35 | > 31.3 µg/mL | 42 | > 31.3 µg/mL | 3.91 | –
CC(=O)N[C@@H](CS)C(=O)O [NAC, N-Acetyl-L-cysteine] | – | 3130 | – | 6250 | 229 ± 54.9 | 31 | > 100,000 µg/mL | – | 12,500 µg/mL | – | 12,500 µg/mL | 6250 | 212 ± 16.6
